The text below walks through data of article PMC9060607 (RSC Advances, 2019).

One test deals with plasma CES. As to conditions: rat plasma, inhibitor 10 mM; cited from earlier work.
Test [1] concerns plasma esterases. The experiment in a line: Inhibition of CDD hydrolysis in dog plasma by esterase inhibitors. Format: biochemical, beagle dog. Conditions: for % inhibition of CDD hydrolysis: CDD 1.5 μM, 37 °C, 15 min.
The subject of test [2] is plasma esterases. The test is described as follows: Inhibition of CDD hydrolysis in human plasma by esterase inhibitors. Format: biochemical. Conditions: for % inhibition of CDD hydrolysis: CDD 1.5 μM, 37 °C, 5 min.
Test [3] deals with plasma esterases. The experiment in a line: Inhibition of CDD hydrolysis in rat plasma by esterase inhibitors. Format: biochemical. Conditions: for % inhibition of CDD hydrolysis: CDD 1.5 μM, 37 °C, 5 s.

Where a name gives a salt, the structure may show the parent alone. Bounds are passed on as bounds.

With `O=[N+]([O-])c1ccc(OP(=O)(O)Oc2ccc([N+](=O)[O-])cc2)cc1` [BNPP, Bis(4-nitrophenyl) phosphate], the “effect on ex vivo hydrolysis of CDD” value in the test on plasma CES was “inhibited”. In addition, the “% inhibition of CDD hydrolysis” value in the test with plasma esterases [1] (inhibitor 0.1 mM) was 16.6 ± 8.2%; in the test with plasma esterases [1] (inhibitor 1 mM), 63.6 ± 1.8%; in the test on plasma esterases [2] (inhibitor 0.1 mM), below 10%; in the test with plasma esterases [2] (inhibitor 1 mM) it was 42.2 ± 6.7%; in the test with plasma esterases [3] (inhibitor 0.1 mM) it was 83.0 ± 8.9%; in the test on plasma esterases [3] (inhibitor 1 mM), 97.0 ± 7.7%. Besides, the “inhibition of CDD hydrolysis (in words)” value with plasma esterases [2] (inhibitor 1 mM) is “partial inhibition”.

Consider `C=CC[N+](C)(C)c1ccc(CCC(=O)CCc2ccc([N+](C)(C)CC=C)cc2)cc1.[Br-].[Br-]` [BW284c51, 1,5-bis(4-allyldimethylammoniumphenyl)pentan-3-one dibromide], for which the “inhibition of CDD hydrolysis (in words)” value in the test with plasma esterases [1] (concentration not given) is listed as “no inhibition”; in the test on plasma esterases [2] (concentration not given), “no inhibition”; with plasma esterases [3] (concentration not given), “did not prevent”. The “% inhibition of CDD hydrolysis” value in the test with plasma esterases [1] (inhibitor 10 μM), with plasma esterases [1] (inhibitor 100 μM), with plasma esterases [2] (inhibitor 10 μM), in the test with plasma esterases [2] (inhibitor 100 μM), in the test on plasma esterases [3] (inhibitor 10 μM) and in the test with plasma esterases [3] (inhibitor 100 μM) was below 10% each time.

Regarding `O=C(O)c1cc(SSc2ccc([N+](=O)[O-])c(C(=O)O)c2)ccc1[N+](=O)[O-]` [DTNB, 5,5′-dithiobis-2-nitrobenzoic acid], the “% inhibition of CDD hydrolysis” value in the test on plasma esterases [1] (inhibitor 0.1 mM) is listed as below 10%; in the test with plasma esterases [1] (inhibitor 1 mM) it was 47.8 ± 0.83%; in the test with plasma esterases [2] (inhibitor 0.1 mM) it was below 10%; in the test on plasma esterases [2] (inhibitor 1 mM), 52.0 ± 1.5%; with plasma esterases [3] (inhibitor 0.1 mM), below 10%; in the test on plasma esterases [3] (inhibitor 1 mM), below 10%. In addition, the entries for the “inhibition of CDD hydrolysis (in words)” value in the test on plasma esterases [1] (inhibitor 1 mM), in the test with plasma esterases [2] (inhibitor 1 mM) and with plasma esterases [3] (concentration not given) were “moderate inhibition”, “moderate inhibition” and “did not prevent”, respectively.

With `O=C([O-])CN(CCN(CC(=O)[O-])CC(=O)O)CC(=O)O.[Na+].[Na+]` [EDTA, Ethylenediaminetetraacetic acid disodium], the “inhibition of CDD hydrolysis (in words)” value in the test on plasma esterases [1] (concentration not given) is “no inhibition”; in the test with plasma esterases [2] (concentration not given), “no inhibition”; with plasma esterases [3] (concentration not given) it was “did not prevent”. Moreover, the “% inhibition of CDD hydrolysis” value with plasma esterases [1] (inhibitor 5 mM), in the test on plasma esterases [1] (inhibitor 10 mM), in the test on plasma esterases [2] (inhibitor 5 mM), in the test on plasma esterases [2] (inhibitor 10 mM), in the test with plasma esterases [3] (inhibitor 5 mM) and with plasma esterases [3] (inhibitor 10 mM) was below 10% in each case.

For the molecule `O=C(O)CN(CCOCCOCCN(CC(=O)O)CC(=O)O)CC(=O)O` [EGTA, ethyleneglycol-bis(2-aminoethylether)-tetraacetic acid], the “inhibition of CDD hydrolysis (in words)” value is given as “fewer than those of the aforementioned esterase inhibitors” in the test on plasma esterases [1] (concentration not given) and “partially inhibited” with plasma esterases [2] (concentration not given). The “% inhibition of CDD hydrolysis” value with plasma esterases [1] (inhibitor 5 mM) was 17.3 ± 6.1%; in the test with plasma esterases [1] (inhibitor 10 mM) it was 19.9 ± 8.0%; in the test on plasma esterases [2] (inhibitor 5 mM), 23.2 ± 11.4%; with plasma esterases [2] (inhibitor 10 mM), 26.5 ± 3.6%; with plasma esterases [3] (inhibitor 5 mM), below 10%; in the test with plasma esterases [3] (inhibitor 10 mM) it was below 10%.

As for `CNC(=O)Oc1ccc2c(c1)[C@]1(C)CCN(C)[C@@H]1N2C` [Eserine, eserine hemisulfate salt], the “inhibition of CDD hydrolysis (in words)” value was “no inhibition” with plasma esterases [1] (concentration not given), “no inhibition” in the test on plasma esterases [2] (concentration not given) and “did not prevent” in the test on plasma esterases [3] (concentration not given). Moreover, the “% inhibition of CDD hydrolysis” value in the test on plasma esterases [1] (inhibitor 10 μM), with plasma esterases [1] (inhibitor 100 μM), in the test on plasma esterases [2] (inhibitor 10 μM), with plasma esterases [2] (inhibitor 100 μM), with plasma esterases [3] (inhibitor 10 μM) and with plasma esterases [3] (inhibitor 100 μM) was below 10% throughout.

Regarding `CC(C)NP(=O)(NC(C)C)OP(=O)(NC(C)C)NC(C)C` [Iso-OMPA, tetraisopropyl pyrophosphoramide], the results for the “inhibition of CDD hydrolysis (in words)” value in the test with plasma esterases [1] (concentration not given) and with plasma esterases [2] (concentration not given) were “fewer than those of the aforementioned esterase inhibitors” and “no inhibition”, respectively. Moreover, the “% inhibition of CDD hydrolysis” value in the test with plasma esterases [1] (inhibitor 0.1 mM) is reported as 16.9 ± 7.1%; in the test with plasma esterases [1] (inhibitor 1 mM) it was 17.6 ± 6.7%; in the test on plasma esterases [2] (inhibitor 0.1 mM), below 10%; in the test on plasma esterases [2] (inhibitor 1 mM), below 10%; with plasma esterases [3] (inhibitor 0.1 mM) it was 99.5 ± 11.2%; in the test with plasma esterases [3] (inhibitor 0.1 mM, listed as iso-OMPA) it was above 80%. In addition, the “% inhibition of CDD hydrolysis” value in the test with plasma esterases [3] (inhibitor 1 mM) is 108.3 ± 5.2%.

Take `[F-].[Na+]` [NaF, Sodium fluoride]: the entries for the “inhibition of CDD hydrolysis (in words)” value in the test with plasma esterases [1] (concentration not given), with plasma esterases [2] (concentration not given) and in the test on plasma esterases [3] (inhibitor 10 mM) were “no inhibition”, “no inhibition” and “partially prevented”, respectively. The “% inhibition of CDD hydrolysis” value with plasma esterases [1] (inhibitor 5 mM) is on record as below 10%; with plasma esterases [1] (inhibitor 10 mM), below 10%; in the test with plasma esterases [2] (inhibitor 5 mM), below 10%; in the test on plasma esterases [2] (inhibitor 10 mM) it was below 10%; in the test on plasma esterases [3] (inhibitor 5 mM), below 10%; with plasma esterases [3] (inhibitor 10 mM), 24.4 ± 7.1%.

For `O=S(=O)(F)Cc1ccccc1` [PMSF, Phenylmethanesulfonyl fluoride], the “effect on ex vivo hydrolysis of CDD” value with plasma CES was “inhibited”. For the same molecule, the “% inhibition of CDD hydrolysis” value with plasma esterases [1] (inhibitor 0.1 mM) is below 10%; in the test with plasma esterases [1] (inhibitor 1 mM), 29.6 ± 5.3%; in the test on plasma esterases [2] (inhibitor 0.1 mM), below 10%; in the test with plasma esterases [2] (inhibitor 1 mM) it was below 10%; in the test with plasma esterases [3] (inhibitor 0.1 mM) it was below 10%; in the test with plasma esterases [3] (inhibitor 1 mM), 96.0 ± 9.2%. Also, in the test with plasma esterases [2] (concentration not given), the “inhibition of CDD hydrolysis (in words)” value is listed as “no inhibition”.

As to `Cl.NCCc1ccc(S(=O)(=O)F)cc1` [Pefabloc® SC, 4-(2-aminoethyl-)benzenesulphonylfloride hydrochloride], the “% inhibition of CDD hydrolysis” value with plasma esterases [1] (inhibitor 0.1 mM) is on record as below 10%; in the test with plasma esterases [1] (inhibitor 1 mM) it was 25.8 ± 3.1%; in the test on plasma esterases [2] (inhibitor 0.1 mM) it was below 10%; with plasma esterases [2] (inhibitor 1 mM) it was below 10%; with plasma esterases [3] (inhibitor 0.1 mM) it was 19.4 ± 2.1%; in the test on plasma esterases [3] (inhibitor 1 mM), 99.8 ± 7.9%. Moreover, in the test with plasma esterases [2] (concentration not given), the “inhibition of CDD hydrolysis (in words)” value was “no inhibition”.

In the case of `Cc1ccc(S(=O)(=O)N[C@@H](CCCCN)C(=O)CCl)cc1.Cl` [TLCK, N-α-tosyl-L-lysine chloromethylketone hydrochloride], the “% inhibition of CDD hydrolysis” value in the test on plasma esterases [1] (inhibitor 0.1 mM) was below 10%; in the test on plasma esterases [1] (inhibitor 1 mM), 17.0 ± 10.3%; in the test on plasma esterases [2] (inhibitor 0.1 mM), below 10%; in the test on plasma esterases [2] (inhibitor 1 mM), below 10%; in the test with plasma esterases [3] (inhibitor 0.1 mM), below 10%; in the test with plasma esterases [3] (inhibitor 1 mM), below 10%. For the same molecule, the “inhibition of CDD hydrolysis (in words)” value with plasma esterases [2] (concentration not given) was “no inhibition”; in the test on plasma esterases [3] (concentration not given), “did not prevent”.
